Results published in patent US8431554B2, “Compound showing anti-inflammatory activity and antiviral activity, pharmaceutical compositions comprising the same, a process for obtaining the same and use of the same in the treatment of epidemic keratoconjunctivites and herpetic stromal keratis” (priority 2007, dated 2013).

Legend:
[1] = tested on: alpha-TNF production in macrophages J774; test: Inhibition of alpha-TNF production in LPS-treated J774 macrophages; format: cell-based; settings: different concentrations
Excerpt: Also, compound I has anti-inflammatory activity.
Also, said compound II has anti-inflammatory activity.

[2] = Cytotoxicity used for the adenovirus selectivity index; format: cell-based; settings: human; IOBA-NHC
Procedure: The antiviral selectivity index of Compound I for adenovirus is of 31.6. Said index was determined as a quotient between its viral activity (=63.2) and its cytotoxicity (=2).
The antiviral selectivity index of Compound II for adenovirus is of […] Said index was determined as a quotient between its viral activity (=62.6) and its cytotoxicity (=4).

strain KOS of HSV-1 = test: Anti-HSV-1 activity, virus yield in infected IOBA-NHC cells titrated in Vero cells; format: cell-based; settings: for EC50: Human alphaherpesvirus 1, Vero, HSV-1 KOS, m.i. 0.2, IOBA-NHC cells, 24 h, read-out: CE50 (Effective concentration 50); for IS, Selectivity index (CC50/CE50): anti-HSV-1, IOBA-NHC cells
Procedure: To evaluate the antiviral activity of the compounds I and II, monolayers of cells IOBA-NHC grown in microplates of 24 wells were infected with the strain KOS of HSV-1 at a multiplicity of infection (m.i.) of 0.2, and treated with different concentrations of the compounds. Infected cells not treated were used as control of the infection. After incubating at 37° C. during 24 h, the free and cell associated virus was harvested and titrated in Vero cells by plating in semisolid medium. It was observed an inhibition of dose-dependent viral replication in the cells treated with the compounds I and II (Table 1).

adenovirus (ADV-5) = test: Antiviral activity against adenovirus in infected IOBA-NHC cultures; format: cell-based; settings: ADV-5, IOBA-NHC; for viral activity (used for selectivity index): multiplicity of infection of 1; for inhibition of adenovirus replication, in words: multiplicity of infection of 1, different concentrations
[3] = Cytotoxicity, colorimetric MTT assay in IOBA-NHC cells; format: cell-based; settings: human, IOBA-NHC human conjunctival cells, confluent monolayers, 24 hours at 37° C., read-out: CC50 (Cytotoxyc concentration 50)
Procedure: The activity anti-HSV-1 of the compounds I and II was evaluated in human conjunctive cells (IOBA-NHC). First, it was determined cytotoxicity of the same for cells IOBA-NHC using the colorimetric assay with MTT, based on the cleavage of the tetrazolium salt MTT (3-(4,5-dimethylthiazol-2-yl)-2,5-diphenyl tetrazolium […]) by the mitochondrial enzyme succinate dehydrogenase, to obtain a blue product, formazan (Denizot F, Lang R. Rapid colorimetric assay for cell growth and survival. Journal of Immunological Methods 1986; 89:271-77). The compounds dissolved in ethanol are added to confluent monolayers of cells IOBA-NHC grown in microplates of 96 wells, in concentrations of up to 600 μM, according to the compound. The ethanol concentration was lower than 1%. After 24 hours of incubation at 37° C., the absorbency of each well was read at 570 nm, with a reference wave length of 630 nm. It was determined the 50% cytotoxyc concentration (CC50) as the concentration of compound that reduces absorbency to 50% in relation with the control not treated (Table 1).

[4] = tested on: strain KOS of HSV-1 (herpetic stromal keratitis); test: Murine model of herpetic stromal keratitis (HK) induced by HSV-1; format: in vivo, mice; settings: treated days 6, 7, 8 p.i.; read on day 10 p.i.; FIG. 2A
mice = test: Toxicity assay in vivo; settings: 40 μM, three times a day, three consecutive days
Procedure: A toxicity assay in vivo was performed.

[5] = tested on: strain KOS of HSV-1 (herpetic stromal keratitis); test: Murine model of herpetic stromal keratitis (HK) induced by HSV-1; format: in vivo, mice; settings: for incidence of HK upon completion of the period of disease / severity of lesions versus non-treated infected mice / incidence of HK (mice with signs of keratitis): treated days 1, 2, 3 p.i.; for incidence of HK upon completion of the period of disease / incidence of HK (mice with signs of keratitis): FIG. 1A; for severity of lesions versus non-treated infected mice: FIG. 1B
Procedure: To determine if the treatment with compound I, after viral inoculation, affected the signs of HK, male mice of 6-8 weeks were anesthetized with ketamine/xylazine intraperitoneally and infected with the strain KOS of HSV-1 in the right corneas, previously scrapped with a needle. One group of animals was treated with buffered saline solution (PBS) (control of disease), while the rest were treated topically with a concentration of 40 μM of compound I three times a day. Also, groups of animals to control the antiviral activity of aciclovir (ACV) and anti-inflammatory activity of dexamethasone (DEX) were included, both drugs were commercially available.
It was determined the incidence of the disease as well as the degree of severity of the lesions and evolution of HK was determined under a magnifying glass during 15 days. The diagnosis of the disease is based on the density of inflammatory infiltrates, lengthening of vessels with corneal invasion (neovascularization), and the presence of surface ulcers. Therefore, mice presenting swollen eyelids (blepharitis), neovascularization in more than 10% of the corneal surface, and corneal opacity with or without signs of necrosis, were considered sick of HK.
The signs of ocular signs are gradually developed from the days 6-7 post-infection (p.i.) and the percentage of animals with HK and severity of the signs of the disease on days 3, 8, and 15 p.i were recorded (FIG. 1 y 2).
To evaluate the antiviral activity of compound I, the compound was applied to a group of animals on days 1, 2 y 3 p.i., the days when multiplication of HSV-1 in the cornea occurs. Also, other groups of mice were treated with ACV—as a positive control of antiviral activity—and with DEX.
To evaluate the anti-inflammatory activity of compound I, the compound was applied on days 6, 7 and 8 p.i., the time when HK manifests.

[6] = treated days 6, 7, 8 p.i., FIG. 2A

Row | SMILES | inhibition of alpha-TNF production, in words [1] | cytotoxicity [2] | EC50 (strain KOS of HSV-1) [µM] | IS, Selectivity index (CC50/CE50) (strain KOS of HSV-1) | antiviral selectivity index for adenovirus (adenovirus (ADV-5)) | viral activity (used for selectivity index) (adenovirus (ADV-5)) | inhibition of adenovirus replication, in words (adenovirus (ADV-5)) | CC50 at 24 h [3] [µM] | mice with signs of the disease (HK) [4] [%] | toxic effects in vivo (mice) | incidence of HK upon completion of the period of disease [5] [%] | severity of lesions versus non-treated infected mice [5] | incidence of HK (mice with signs of keratitis) ([5]; read on day 8 p.i.) [%] | HK signs, in words [5, 6] | severity of the signs of keratitis versus infection control ([5]; treated days 6, 7, 8 p.i., FIG. 2B) | mice with signs of the disease (HK) ([5]; treated days 6, 7, 8 p.i., read on day 8 p.i., FIG. 2A) [%]
1 | CC[C@@H](C(C)C)[C@H](O)[C@@H](O)[C@@H](C)[C@H]1CC[C@H]2[C@@H]3CCC4=CC(=O)C=C[C@]4(C)[C@H]3CC[C@]12C [Compound II, (22S,23S)-22,23-dihydroxystigmasta-1,4-dien-3-one] | inhibits production of alpha-TNF | 4 | 17.9 | 3.9 | 15.67 | 62.6 | inhibits virus replication according to the concentration of compound used | 70.8 |  |  |  |  |  |  |  | 
2 | CC[C@@H](C(C)C)[C@H](O)[C@@H](O)[C@@H](C)[C@H]1CC[C@H]2[C@@H]3CCC4=CC(=O)CC[C@]4(C)[C@H]3CC[C@]12C [Compound I, (22S,23S)-22,23-dihydroxystigmast-4-en-3-one] | inhibits production of alpha-TNF | 2 | 5.4 | 13.2 | 31.6 | 63.2 | inhibits virus replication according to the concentration of compound used | 71.2 | 40 | absence of toxic effects | 40 | significant differences | 30 | reduced significantly | lower | 30
3 | Nc1nc2c(ncn2COCCO)c(=O)[nH]1 [ACV, aciclovir, reference compound] |  |  |  |  |  |  |  |  |  |  | 30 | significant differences | 10 | had no effect on the improvement of disease signs |  | 
